Test results as given in patent publication US6898533B1, “Methods for predicting the biological, chemical, and physical properties of molecules from their spectral properties” (The United States of America as represented by the …, priority 2000, dated 2005).
Like-named read-outs stand apart in the source and are kept apart here.

Legend:
estrogen receptor [1] = conditions: 107-compound training set; cited from earlier work
estrogen receptor [2] = experiment: estrogen receptor binding class of the 30-compound training set
Excerpt: Two Spectral Data-Activity Relationship (SDAR) models were established, based on ^13C NMR and EI MS spectra, for 30 estrogenic chemicals whose relative binding affinities (RBA) for the alpha (ERα) and beta (ERβ) estrogen receptors are available.
Strong binders to the estrogen receptor were classified as having a log (RBA) over 0.0, and medium binders to the estrogen receptor were classified as having a log (RBA) of less than or equal to 0.0.

[3] = biological target: beta (ERβ) estrogen receptor (Rattus norvegicus, UniProt Q62986); conditions: cited from earlier work
[4] = biological target: T1, alpha (ERα) estrogen receptor (Homo sapiens, UniProt P03372); conditions: cited from earlier work
T1 sequence (P03372 1-595): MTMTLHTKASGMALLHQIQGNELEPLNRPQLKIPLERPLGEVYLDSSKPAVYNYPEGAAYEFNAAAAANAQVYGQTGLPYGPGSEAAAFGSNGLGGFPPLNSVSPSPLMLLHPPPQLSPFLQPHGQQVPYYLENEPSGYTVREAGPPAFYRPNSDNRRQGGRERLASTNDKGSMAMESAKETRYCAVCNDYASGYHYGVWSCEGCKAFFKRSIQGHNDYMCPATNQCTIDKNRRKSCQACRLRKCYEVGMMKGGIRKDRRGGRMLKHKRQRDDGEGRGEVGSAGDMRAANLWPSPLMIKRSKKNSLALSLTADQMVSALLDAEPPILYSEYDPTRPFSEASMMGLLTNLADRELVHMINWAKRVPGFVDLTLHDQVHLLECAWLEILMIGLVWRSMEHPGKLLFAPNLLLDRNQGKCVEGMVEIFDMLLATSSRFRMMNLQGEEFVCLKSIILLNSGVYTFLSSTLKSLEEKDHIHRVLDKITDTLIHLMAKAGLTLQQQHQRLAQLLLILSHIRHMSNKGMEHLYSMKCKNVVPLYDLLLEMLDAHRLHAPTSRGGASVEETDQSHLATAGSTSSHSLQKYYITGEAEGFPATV

estrogen receptor [5] = experiment: estrogen receptor relative binding affinity, expanded training set of 107 compounds; conditions: input class, 107-compound training set
Excerpt: The training set included weak estrogen receptor binders in addition to strong and medium estrogen receptor binders.
For this model, strong estrogen receptor binders were defined as having log(RBA)>−0.25 and weak estrogen receptor binders were defined as having log(RBA)<−3.0. Medium estrogen receptor binders were defined as having log(RBA) in between.

[6] = SDAR training input endpoint class, 30 compounds
[7] = log of relative binding affinity, 17-β-estradiol RBA = 100

Sequence of beta (ERβ) estrogen receptor (Q62986 whole entry): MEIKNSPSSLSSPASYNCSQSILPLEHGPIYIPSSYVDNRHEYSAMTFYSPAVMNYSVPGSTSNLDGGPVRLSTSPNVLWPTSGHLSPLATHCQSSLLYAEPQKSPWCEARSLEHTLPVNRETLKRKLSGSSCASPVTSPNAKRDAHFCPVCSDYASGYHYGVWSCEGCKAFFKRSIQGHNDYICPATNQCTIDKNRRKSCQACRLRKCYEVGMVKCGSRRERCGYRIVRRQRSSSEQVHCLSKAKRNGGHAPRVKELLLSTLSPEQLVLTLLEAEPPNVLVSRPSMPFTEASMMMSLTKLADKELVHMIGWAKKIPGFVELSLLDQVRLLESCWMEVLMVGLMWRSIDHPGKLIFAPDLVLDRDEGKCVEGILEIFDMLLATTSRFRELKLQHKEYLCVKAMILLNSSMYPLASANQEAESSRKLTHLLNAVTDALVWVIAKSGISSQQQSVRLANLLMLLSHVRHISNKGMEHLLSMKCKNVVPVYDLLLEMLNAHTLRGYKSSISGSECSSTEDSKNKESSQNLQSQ

Row | SMILES | log RBA (estrogen receptor [1]) | Class Input (estrogen receptor [2]; [6]) | Log-(RBA) beta [3] | Log-(RBA) alpha [4] | Class (estrogen receptor [5]) | Log-(RBA) beta [3, 7] | Log-(RBA) alpha [4, 7] | RBA class in words (estrogen receptor [2]) | Class Input (estrogen receptor [2])
1 | COc1ccc(C(c2ccc(OC)cc2)C(Cl)(Cl)Cl)cc1 [Methoxychlor] | −3.2 | M (medium binders to the estrogen receptor were classified as having a log (RBA) of less than or equal to 0.0) | −0.89 | −2.00 |  |  |  |  | 
2 | C#C[C@]1(O)CC[C@H]2[C@@H]3CCc4cc(O)ccc4[C@H]3[C@@H](OC)C[C@@]21C [Moxestrol] | 1.14 | S (Strong binders to the estrogen receptor were classified as having a log (RBA) over 0.0) |  |  | S (strong estrogen receptor binders were defined as having log(RBA)>−0.25) | 0.70 | 1.63 |  | 
3 | C[C@]12CC[C@@H]3c4ccc(O)c(O)c4CC[C@H]3[C@@H]1CC[C@@H]2O [4-OH-Estradiol, 4-hydroxy-estradiol] |  | S (Strong binders to the estrogen receptor were classified as having a log (RBA) over 0.0) |  |  | S (strong estrogen receptor binders were defined as having log(RBA)>−0.25) | 0.85 | 1.11 |  | 
4 | C[C@]12CC[C@@H](O)C[C@@H]1CC[C@@H]1[C@@H]2CC[C@]2(C)[C@@H](O)CC[C@@H]12 [3α-Androstanediol, 5α-Androstane-3α,17β-diol] | −2.67 | M (medium binders to the estrogen receptor were classified as having a log (RBA) of less than or equal to 0.0) | −0.52 | −1.15 | M (Medium estrogen receptor binders were defined as having log(RBA) in between) |  |  | medium | 
5 | C[C@]12CC[C@H](O)C[C@@H]1CC[C@@H]1[C@@H]2CC[C@]2(C)[C@@H](O)CC[C@@H]12 [3β-Androstanediol, 5α-Androstane-3β,17β-diol] | −0.92 |  | 0.85 | 0.48 | M (Medium estrogen receptor binders were defined as having log(RBA) in between) |  |  |  | S (key: Strong binders to the estrogen receptor were classified as having a log (RBA) over 0.0; M: medium binders to the estrogen receptor were classified as having a log (RBA) of less than or equal to 0.0)
6 | CC[C@H](c1ccc(O)cc1)[C@@H](CC)c1ccc(O)cc1 [Hexestrol] | 2.48 | S (Strong binders to the estrogen receptor were classified as having a log (RBA) over 0.0) |  |  | S (strong estrogen receptor binders were defined as having log(RBA)>−0.25) | 2.37 | 2.48 |  | 
7 | CC(C)(c1ccc(O)cc1)c1ccc(O)cc1 [Bisphenol A, 4,4′-isopropylidenediphenol] | −2.11 | M (medium binders to the estrogen receptor were classified as having a log (RBA) of less than or equal to 0.0) |  |  | M (Medium estrogen receptor binders were defined as having log(RBA) in between) | −0.48 | −1.30 |  | 
8 | C/C=C(/C(=C/C)c1ccc(O)cc1)c1ccc(O)cc1 [Dienestrol] | 1.57 | S (Strong binders to the estrogen receptor were classified as having a log (RBA) over 0.0) |  |  | S (strong estrogen receptor binders were defined as having log(RBA)>−0.25) | 2.61 | 2.35 |  | 
